Test results reported in patent EP0554004A2, “Cephem compounds and antibacterial agents” (KATAYAMA SEIYAKUSYO CO. Ltd., priority 1992, dated 1993).
In brackets after ≈: the same amount, converted by molar mass.

Tests used:
[1] = system: Citrobacter freundii ATCC 8090; experiment: MIC against standard strains (Test Example 1); format: cell-based; conditions: ATCC8090, Muller-Hinton agar, 37°C overnight
Outline: (§1)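 Overnight 37°C Mueller-Hinton broth cultures → 1 x 10^6 CFU/ml inoculum → Mueller-Hinton agar plates with compound → overnight, 37°C → MIC = minimum concentration with no growth.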

[2] = system: Enterobacter cloacae ATCC 13407; experiment: MIC against standard strains (Test Example 1); format: cell-based; conditions: ATCC13407, Muller-Hinton agar, 37°C overnight
Outline: as §1

[3] = system: Escherichia coli CSH2 (RE45); experiment: MIC against standard strains (Test Example 1); format: cell-based
Outline: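 Read-out is visible growth inhibition on agent-containing Mueller-Hinton agar, overnight at 37°C; the MIC is the lowest inhibitory concentration. Inoculum: 1 x 10^6 CFU/ml.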

[4] = system: Escherichia coli NIHJ JC-2; experiment: MIC against standard strains (Test Example 1); format: cell-based; conditions: NIHJJC2, Muller-Hinton agar, 37°C overnight
Outline: as §1

Proteus vulgalis OX-19 = experiment: MIC against standard strains (Test Example 1); format: cell-based; conditions: Muller-Hinton agar, 37°C overnight
Outline: as §1

[5] = system: Staphylococcus aureus 167; experiment: MIC against standard strains (Test Example 1); format: cell-based; conditions: Staphylococcus aureus 167 (MRSA); Muller-Hinton agar, 37°C overnight
Outline: as §1

clinically isolated MRSA = experiment: Antibacterial potency against clinically isolated MRSA (Test Example 2); format: cell-based, methicillin-resistant Staphylococcus aureus; conditions: Staphylococcus aureus, 52 strains of clinically isolated MRSA
Outline: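 MIC measured against 52 clinical MRSA strains by the Japan Chemotherapical Society standard method. MIC50 and MIC90 (µg/ml) are the concentrations inhibiting growth of 50% and 90% of strains.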

A. calcoaceticos T59 = experiment: MIC against standard strains (Test Example 3); format: cell-based; conditions: A. calcoaceticos T59 (Test Example 3); read-out: MIC
Outline: (§2)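 Agar dilution MIC; Mueller-Hinton agar; inoculum 1 x 10^6 CFU/ml from overnight 37°C MH broth culture; read after overnight incubation at 37°C; MIC = lowest concentration with no growth.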

A. faecalis ATCC3750 = experiment: MIC against standard strains (Test Example 3); format: cell-based; conditions: Alcaligenes faecalis; A. faecalis ATCC3750 (Test Example 3); read-out: MIC
Outline: as §2

B. subtilis ATCC6633 = experiment: MIC against standard strains (Test Example 3); format: cell-based; conditions: Bacillus subtilis; B. subtilis ATCC6633 (Test Example 3); read-out: MIC
Outline: as §2

C. freundii ATCC8090 = experiment: MIC against standard strains (Test Example 3); format: cell-based; conditions: Citrobacter freundii; C. freundii ATCC8090 (Test Example 3); read-out: MIC
Outline: as §2

E. cloacae ATCC13407 = experiment: MIC against standard strains (Test Example 3); format: cell-based; conditions: Enterobacter cloacae; E. cloacae ATCC13407 (Test Example 3); read-out: MIC
Outline: as §2

E. coli CSH2 (RE45) = experiment: MIC against standard strains (Test Example 3); format: cell-based; conditions: Escherichia coli
Outline: (§3)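 Agar dilution on Muller-Hinton agar containing test agent, inoculated with overnight Muller-Hinton broth cultures adjusted to 1 x 10^6 CFU/ml; MIC read as lowest concentration inhibiting growth after overnight incubation at 37°C.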

E. coli CSH2 (RK1) = experiment: MIC against standard strains (Test Example 3); format: cell-based; conditions: Escherichia coli
Outline: as §3

E. coli NIHJ JC-2 = experiment: MIC against standard strains (Test Example 3); format: cell-based; conditions: Escherichia coli, NIHJJC2; E. coli NIHJ JC-2 (Test Example 3); read-out: MIC
Outline: as §2

K. pneumoniae IFO3317 = experiment: MIC against standard strains (Test Example 3); format: cell-based; conditions: Klebsiella pneumoniae; K. pneumoniae IFO3317 (Test Example 3); read-out: MIC
Outline: as §2

K. pneumoniae No. 42 = experiment: MIC against standard strains (Test Example 3); format: cell-based; conditions: Klebsiella pneumoniae; K. pneumoniae No. 42 (Test Example 3); read-out: MIC
Outline: as §2

M. Morganii IFO3848 = experiment: MIC against standard strains (Test Example 3); format: cell-based; conditions: Morganella morganii; M. Morganii IFO3848 (Test Example 3); read-out: MIC
Outline: as §2

M. luteus ATCC 9341 = experiment: MIC against standard strains (Test Example 3); format: cell-based; conditions: Micrococcus luteus, ATCC9341; M. luteus ATCC 9341 (Test Example 3); read-out: MIC
Outline: as §2

P. aeruginosa NCTC10490 = experiment: MIC against standard strains (Test Example 3); format: cell-based; conditions: Pseudomonas aeruginosa; P. aeruginosa NCTC10490 (Test Example 3); read-out: MIC
Outline: as §2

P. mirabilis IFO3849 = experiment: MIC against standard strains (Test Example 3); format: cell-based; conditions: Proteus mirabilis; P. mirabilis IFO3849 (Test Example 3); read-out: MIC
Outline: as §2

P. vulugaris OX-19 = experiment: MIC against standard strains (Test Example 3); format: cell-based; conditions: P. vulugaris OX-19 (Test Example 3); read-out: MIC
Outline: as §2

S. aureus 167 = experiment: MIC against standard strains (Test Example 3); format: cell-based; conditions: Staphylococcus aureus; S. aureus 167 (MRSA) (Test Example 3); read-out: MIC
Outline: as §2

S. aureus 195 = experiment: MIC against standard strains (Test Example 3); format: cell-based; conditions: Staphylococcus aureus; S. aureus 195 (MRSA) (Test Example 3); read-out: MIC
Outline: as §2

S. aureus 209p JC-1 = experiment: MIC against standard strains (Test Example 3); format: cell-based; conditions: Staphylococcus aureus; S. aureus 209p JC-1 (Test Example 3); read-out: MIC
Outline: as §2

S. aureus Smith = experiment: MIC against standard strains (Test Example 3); format: cell-based; conditions: Staphylococcus aureus; S. aureus Smith (Test Example 3); read-out: MIC
Outline: as §2

S. epidemidis IAM1296 = experiment: MIC against standard strains (Test Example 3); format: cell-based; conditions: S. epidemidis IAM1296 (Test Example 3); read-out: MIC
Outline: as §2

S. marcescens IAM1184 = experiment: MIC against standard strains (Test Example 3); format: cell-based; conditions: Serratia marcescens; S. marcescens IAM1184 (Test Example 3); read-out: MIC
Outline: as §2

**Q.** With `CO[C@@]1(NC(=O)CSC(F)F)C(=O)N2C(C(=O)O)=C(CSc3nnnn3CCO)CO[C@@H]21` [FMOX, flomoxef, reference compound] as the molecule, how does the MIC [1] read?
**A.** Its MIC is 0.39 µg/mL (≈ 0.786 µM).

**Q.** What about the MIC [2] of the same molecule?
**A.** Its MIC is 25 µg/mL (≈ 50.4 µM).

**Q.** And the MIC [3]?
**A.** The MIC was 0.1 µg/mL (≈ 0.201 µM).

**Q.** What about the MIC [4] of the same molecule?
**A.** Its MIC is 0.05 µg/mL (≈ 0.101 µM).

**Q.** What about the MIC (Proteus vulgalis OX-19) of the same molecule?
**A.** Its MIC is 0.39 µg/mL (≈ 0.786 µM).

**Q.** And the MIC [5]?
**A.** Its MIC is 100 µg/mL (≈ 201 µM).

**Q.** What about the MIC50 (clinically isolated MRSA; concentration inhibiting growth of 50% of the strains (Test Example 2)) of the same molecule?
**A.** The MIC50 was 8.16 µg/mL (≈ 16.4 µM).

**Q.** What about the MIC90 (clinically isolated MRSA; concentration inhibiting growth of 90% of the strains (Test Example 2)) of the same molecule?
**A.** Its MIC90 is 40.2 µg/mL (≈ 81 µM).

**Q.** What about the MIC (A. calcoaceticos T59) of the same molecule?
**A.** The MIC was 50 µg/mL (≈ 101 µM).

**Q.** What about the MIC (A. faecalis ATCC3750) of the same molecule?
**A.** The MIC was 0.1 µg/mL (≈ 0.201 µM).

**Q.** And the MIC (B. subtilis ATCC6633)?
**A.** Its MIC is 0.2 µg/mL (≈ 0.403 µM).

**Q.** What about the MIC (C. freundii ATCC8090) of the same molecule?
**A.** The MIC was 0.39 µg/mL (≈ 0.786 µM).

**Q.** What about the MIC (E. cloacae ATCC13407) of the same molecule?
**A.** The MIC was 25 µg/mL (≈ 50.4 µM).

**Q.** What about the MIC (E. coli CSH2 (RE45)) of the same molecule?
**A.** Its MIC is 0.05 µg/mL (≈ 0.101 µM).

**Q.** What about the MIC (E. coli CSH2 (RK1)) of the same molecule?
**A.** The MIC was 0.05 µg/mL (≈ 0.101 µM).

**Q.** What about the MIC (E. coli NIHJ JC-2) of the same molecule?
**A.** The MIC was 0.05 µg/mL (≈ 0.101 µM).

**Q.** What about the MIC (K. pneumoniae IFO3317) of the same molecule?
**A.** The MIC was 0.025 µg/mL (≈ 0.0504 µM).

**Q.** And the MIC (K. pneumoniae No. 42)?
**A.** Its MIC is 0.05 µg/mL (≈ 0.101 µM).

**Q.** What about the MIC (M. Morganii IFO3848) of the same molecule?
**A.** Its MIC is 0.39 µg/mL (≈ 0.786 µM).

**Q.** What about the MIC (M. luteus ATCC 9341) of the same molecule?
**A.** The MIC was 0.05 µg/mL (≈ 0.101 µM).

**Q.** What about the MIC (P. aeruginosa NCTC10490) of the same molecule?
**A.** Its MIC is > 100 µg/mL.

**Q.** And the MIC (P. mirabilis IFO3849)?
**A.** Its MIC is 0.2 µg/mL (≈ 0.403 µM).

**Q.** And the MIC (P. vulugaris OX-19)?
**A.** Its MIC is 0.39 µg/mL (≈ 0.786 µM).

**Q.** What about the MIC (S. aureus 167) of the same molecule?
**A.** Its MIC is 50 µg/mL (≈ 101 µM).

**Q.** What about the MIC (S. aureus 195) of the same molecule?
**A.** Its MIC is 3.13 µg/mL (≈ 6.3 µM).

**Q.** And the MIC (S. aureus 209p JC-1)?
**A.** Its MIC is 0.39 µg/mL (≈ 0.786 µM).

**Q.** And the MIC (S. aureus Smith)?
**A.** Its MIC is 0.39 µg/mL (≈ 0.786 µM).

**Q.** What about the MIC (S. epidemidis IAM1296) of the same molecule?
**A.** Its MIC is 0.2 µg/mL (≈ 0.403 µM).

**Q.** And the MIC (S. marcescens IAM1184)?
**A.** The MIC was 0.2 µg/mL (≈ 0.403 µM).
